Test results reported in PubChem BioAssay (NCI).
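All cell lines were grown in 96-well plates and treated with compound for 48 hours. The concentration for 50% growth inhibition is given as GI50. Definition used: TGI = concentration required for complete inhibition of growth.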

Tests used:
Experiment in all cases: growth of human tumour cells (NCI), 48 h
NCI-H226 lung = test system: NCI-H226 lung
HT29 colon = test system: HT29 colon
IGROV1 ovarian = test system: IGROV1 ovarian
SW-620 colon = test system: SW-620 colon
SF-295 CNS = test system: SF-295 CNS
SK-MEL-2 melanoma = test system: SK-MEL-2 melanoma
MCF7 breast = test system: MCF7 breast
OVCAR-8 ovarian = test system: OVCAR-8 ovarian
MDA-MB-231 breast = test system: MDA-MB-231 breast
HL-60(TB) leukemia = test system: HL-60(TB) leukemia
HS 578T breast = test system: HS 578T breast
SF-539 CNS = test system: SF-539 CNS
OVCAR-4 ovarian = test system: OVCAR-4 ovarian
BT-549 breast = test system: BT-549 breast
SNB-19 CNS = test system: SNB-19 CNS
HCC-2998 colon = test system: HCC-2998 colon
NCI/ADR-RES ovarian = test system: NCI/ADR-RES ovarian
786-0 renal = test system: 786-0 renal
EKVX NSCLC = test system: EKVX NSCLC
NCI-H23 lung = test system: NCI-H23 lung
UACC-62 melanoma = test system: UACC-62 melanoma
LOX IMVI melanoma = test system: LOX IMVI melanoma
ACHN renal = test system: ACHN renal
CCRF-CEM leukemia = test system: CCRF-CEM leukemia
MOLT-4 leukemia = test system: MOLT-4 leukemia
SF-268 CNS = test system: SF-268 CNS
COLO 205 colon = test system: COLO 205 colon
HCT-15 colon = test system: HCT-15 colon
UO-31 renal = test system: UO-31 renal
SR leukemia = test system: SR leukemia
HOP-92 NSCLC = test system: HOP-92 NSCLC
TK-10 renal = test system: TK-10 renal
K-562 leukemia = test system: K-562 leukemia
HCT-116 colon = test system: HCT-116 colon
M14 melanoma = test system: M14 melanoma
DU-145 prostate = test system: DU-145 prostate
SK-MEL-5 melanoma = test system: SK-MEL-5 melanoma
MDA-MB-435 = test system: MDA-MB-435
CAKI-1 renal = test system: CAKI-1 renal
SK-OV-3 ovarian = test system: SK-OV-3 ovarian
RPMI-8226 leukemia = test system: RPMI-8226 leukemia
SK-MEL-28 melanoma = test system: SK-MEL-28 melanoma
SNB-75 CNS = test system: SNB-75 CNS
T-47D breast = test system: T-47D breast
RXF 393 renal = test system: RXF 393 renal
KM12 colon = test system: KM12 colon
UACC-257 melanoma = test system: UACC-257 melanoma
NCI-H460 lung = test system: NCI-H460 lung
PC-3 prostate = test system: PC-3 prostate
HOP-62 NSCLC = test system: HOP-62 NSCLC
U251 CNS = test system: U251 CNS
OVCAR-3 ovarian = test system: OVCAR-3 ovarian
A498 renal = test system: A498 renal
A549 NSCLC = test system: A549 NSCLC
NCI-H522 lung = test system: NCI-H522 lung
MALME-3M melanoma = test system: MALME-3M melanoma
OVCAR-5 ovarian = test system: OVCAR-5 ovarian
SN12C renal = test system: SN12C renal

## CC(C)[Si]1(C(C)C)OCC2OC3(CO)C(Oc4nc(=O)ccn43)C2O[Si](C(C)C)(C(C)C)O1 (centres undefined)
NCI-H226 lung
  TGI: 31 µM
HT29 colon
  TGI: 27.2 µM
IGROV1 ovarian
  TGI: 33 µM
SW-620 colon
  TGI: 34.7 µM
SF-295 CNS
  TGI: 29.6 µM
SK-MEL-2 melanoma
  TGI: 30.5 µM
MCF7 breast
  TGI: 18.6 µM
OVCAR-8 ovarian
  TGI: 31.8 µM
MDA-MB-231 breast
  TGI: 23.2 µM
HL-60(TB) leukemia
  TGI: 27.1 µM
HS 578T breast
  TGI: 45.9 µM
SF-539 CNS
  TGI: 28.3 µM
OVCAR-4 ovarian
  TGI: 26.7 µM
BT-549 breast
  TGI: 24.9 µM
SNB-19 CNS
  TGI: 32.7 µM
HCC-2998 colon
  TGI: 25.4 µM
NCI/ADR-RES ovarian
  TGI: 41.6 µM
786-0 renal
  TGI: 28.9 µM
EKVX NSCLC
  TGI: 35 µM
NCI-H23 lung
  TGI: 30.1 µM
UACC-62 melanoma
  TGI: 26.8 µM
LOX IMVI melanoma
  TGI: 28.7 µM
ACHN renal
  TGI: 29.3 µM
CCRF-CEM leukemia
  TGI: 24.6 µM
MOLT-4 leukemia
  TGI: 24.8 µM
SF-268 CNS
  TGI: 35.6 µM
COLO 205 colon
  TGI: 22 µM
HCT-15 colon
  TGI: 28.5 µM
UO-31 renal
  TGI: 27.2 µM
SR leukemia
  TGI: 47.1 µM
HOP-92 NSCLC
  TGI: 32.2 µM
TK-10 renal
  TGI: 32.1 µM
K-562 leukemia
  TGI: 45.5 µM
HCT-116 colon
  TGI: 24.7 µM
M14 melanoma
  TGI: 30.4 µM
DU-145 prostate
  TGI: 27.7 µM
SK-MEL-5 melanoma
  TGI: 32.9 µM
MDA-MB-435
  TGI: 31.4 µM
CAKI-1 renal
  TGI: 29.4 µM
SK-OV-3 ovarian
  TGI: 36.3 µM
RPMI-8226 leukemia
  TGI: 23.9 µM
SK-MEL-28 melanoma
  TGI: 29.3 µM
SNB-75 CNS
  TGI: 30.7 µM
T-47D breast
  TGI: 24 µM
RXF 393 renal
  TGI: 18.3 µM
KM12 colon
  TGI: 30.8 µM
UACC-257 melanoma
  TGI: 30.1 µM
NCI-H460 lung
  TGI: 29.2 µM
PC-3 prostate
  TGI: 17.7 µM
HOP-62 NSCLC
  TGI: 29.2 µM
U251 CNS
  TGI: 28.1 µM

## CC(C)=CCc1cc(O)cc2c1OC(C=C(C)C)C1=C2C(=O)C2=C(C1=O)S(=O)(=O)CCN2 (centres undefined)
NCI-H226 lung
  GI50: 4.75 µM
  TGI: > 16.7 µM
HT29 colon
  GI50: 6.61 µM
  TGI: > 16.7 µM
IGROV1 ovarian
  GI50: 3.23 µM
  TGI: 9.17 µM
SW-620 colon
  GI50: 5.34 µM
  TGI: 16.5 µM
SK-MEL-2 melanoma
  GI50: 3.13 µM
  TGI: 6.56 µM
MCF7 breast
  GI50: 2.79 µM
  TGI: 6.97 µM
OVCAR-8 ovarian
  GI50: 3.09 µM
  TGI: 6.72 µM
MDA-MB-231 breast
  GI50: 2.99 µM
  TGI: 8.27 µM
OVCAR-3 ovarian
  GI50: 1.18 µM
  TGI: 14.8 µM
HS 578T breast
  GI50: 3.15 µM
  TGI: 13 µM
A498 renal
  GI50: 9.61 µM
  TGI: > 16.7 µM
SF-539 CNS
  GI50: 2.8 µM
  TGI: 5.09 µM
OVCAR-4 ovarian
  GI50: 2.77 µM
  TGI: 6.72 µM
BT-549 breast
  GI50: 5.18 µM
  TGI: > 16.7 µM
SNB-19 CNS
  GI50: 2.78 µM
  TGI: 5.15 µM
A549 NSCLC
  GI50: 6.14 µM
  TGI: > 16.7 µM
HCC-2998 colon
  GI50: 5.53 µM
  TGI: > 16.7 µM
NCI/ADR-RES ovarian
  GI50: > 16.7 µM
  TGI: > 16.7 µM
NCI-H522 lung
  GI50: 2.94 µM
  TGI: 7.03 µM
786-0 renal
  GI50: 5.05 µM
  TGI: > 16.7 µM
EKVX NSCLC
  GI50: 3.3 µM
  TGI: 9.16 µM
NCI-H23 lung
  GI50: 3.85 µM
  TGI: 12.9 µM
UACC-62 melanoma
  GI50: 2.81 µM
  TGI: 5.46 µM
LOX IMVI melanoma
  GI50: 3.48 µM
  TGI: 10.2 µM
ACHN renal
  GI50: 6.14 µM
  TGI: > 16.7 µM
CCRF-CEM leukemia
  GI50: 5.81 µM
  TGI: > 16.7 µM
MOLT-4 leukemia
  GI50: 3.4 µM
  TGI: 8.99 µM
SF-268 CNS
  GI50: 2.91 µM
  TGI: 8.37 µM
COLO 205 colon
  GI50: 5.42 µM
  TGI: > 16.7 µM
HCT-15 colon
  GI50: 5.8 µM
  TGI: > 16.7 µM
UO-31 renal
  GI50: 6.23 µM
  TGI: > 16.7 µM
MALME-3M melanoma
  GI50: 1.69 µM
  TGI: 3.64 µM
HOP-92 NSCLC
  GI50: 6.05 µM
  TGI: > 16.7 µM
TK-10 renal
  GI50: > 16.7 µM
  TGI: > 16.7 µM
K-562 leukemia
  GI50: 4.68 µM
  TGI: > 16.7 µM
HCT-116 colon
  GI50: 2.97 µM
  TGI: 7.14 µM
M14 melanoma
  GI50: 2.92 µM
  TGI: 5.59 µM
DU-145 prostate
  GI50: 2.93 µM
  TGI: 5.37 µM
SK-MEL-5 melanoma
  GI50: 2.75 µM
  TGI: 5.05 µM
MDA-MB-435
  GI50: 3.05 µM
  TGI: 5.8 µM
SK-OV-3 ovarian
  GI50: 8.06 µM
  TGI: > 16.7 µM
RPMI-8226 leukemia
  GI50: 4.16 µM
  TGI: 12.2 µM
SK-MEL-28 melanoma
  GI50: 3.12 µM
  TGI: 6.04 µM
OVCAR-5 ovarian
  GI50: 4.34 µM
  TGI: 12.5 µM
SNB-75 CNS
  GI50: 2.6 µM
  TGI: 6.39 µM
T-47D breast
  GI50: 3.57 µM
  TGI: 12.7 µM
RXF 393 renal
  GI50: 3.02 µM
  TGI: 12.5 µM
KM12 colon
  GI50: 5.8 µM
  TGI: > 16.7 µM
UACC-257 melanoma
  GI50: 2.56 µM
  TGI: 4.97 µM
NCI-H460 lung
  GI50: 5.23 µM
  TGI: > 16.7 µM
PC-3 prostate
  GI50: 5.09 µM
  TGI: > 16.7 µM
HOP-62 NSCLC
  GI50: 5.66 µM
  TGI: > 16.7 µM
U251 CNS
  GI50: 2.84 µM
  TGI: 5.15 µM
SN12C renal
  GI50: 2.7 µM
  TGI: 5.45 µM
